# Test results taken from ChEMBL document CHEMBL4725265, “Short chain α-pyrones capable of potentiating penicillin G against Pseudomonas aeruginosa” (Bioorg Med Chem Lett, 2020).
# Activity calls are given as the source filed them. No cut-off for these calls is given here.
# Legend:
# Escherichia coli [1] = test: Potentiation of vancomycin-induced antibacterial activity against Escherichia coli assessed as vancomycin MIC at 50 uM after 12 to 24 hrs (reference value: 64 microg/ml); format: functional; settings: time hrs 12-24
# Pseudomonas aeruginosa [2] = test: Potentiation of amoxicillin-induced antibacterial activity against Pseudomonas aeruginosa assessed as fold reduction in amoxicillin MIC at 50 uM after 12 to 24 hrs relative to amoxicillin MIC alone; format: functional; settings: time hrs 12-24
# Escherichia coli [3] = test: Potentiation of vancomycin-induced antibacterial activity against Escherichia coli assessed as fold reduction in vancomycin MIC at 50 uM after 12 to 24 hrs relative to vancomycin MIC alone; format: functional; settings: time hrs 12-24
# Pseudomonas aeruginosa [4] = test: Potentiation of amoxicillin-induced antibacterial activity against Pseudomonas aeruginosa assessed as amoxicillin MIC at 50 uM after 12 to 24 hrs (reference value: 2 microg/ml); format: functional; settings: time hrs 12-24
# Pseudomonas aeruginosa [5] = test: Antibacterial activity against Pseudomonas aeruginosa assessed as cell wall perturbation by XTT assay; format: functional, organism-based
# Bacillus subtilis [6] = test: Potentiation of amoxicillin-induced antibacterial activity against Bacillus subtilis assessed as fold reduction in amoxicillin MIC at 50 uM after 12 to 24 hrs relative to amoxicillin MIC alone; format: functional; settings: time hrs 12-24
# Staphylococcus aureus [7] = test: Potentiation of vancomycin-induced antibacterial activity against Staphylococcus aureus assessed as fold reduction in vancomycin MIC at 50 uM after 12 to 24 hrs relative to vancomycin MIC alone; format: functional; settings: time hrs 12-24
# Bacillus subtilis [8] = test: Potentiation of penicillin G-induced antibacterial activity against Bacillus subtilis assessed as fold reduction in penicillin G MIC at 50 uM after 12 to 24 hrs relative to penicillin G MIC alone; format: functional; settings: time hrs 12-24
# Staphylococcus aureus [9] = test: Potentiation of amoxicillin-induced antibacterial activity against Staphylococcus aureus assessed as fold reduction in amoxicillin MIC at 50 uM after 12 to 24 hrs relative to amoxicillin MIC alone; format: functional; settings: time hrs 12-24
# Pseudomonas aeruginosa [10] = test: Antibacterial activity against Pseudomonas aeruginosa; format: functional, organism-based
# Pseudomonas aeruginosa [11] = test: Potentiation of erythromycin-induced antibacterial activity against Pseudomonas aeruginosa assessed as fold reduction in erythromycin MIC at 50 uM after 12 to 24 hrs relative to erythromycin MIC alone; format: functional; settings: time hrs 12-24
# Pseudomonas aeruginosa [12] = test: Potentiation of penicillin G-induced antibacterial activity against Pseudomonas aeruginosa assessed as fold reduction in penicillin G MIC at 50 uM after 12 to 24 hrs relative to penicillin G MIC alone; format: functional; settings: time hrs 12-24
# Staphylococcus aureus [13] = test: Potentiation of vancomycin-induced antibacterial activity against Staphylococcus aureus assessed as vancomycin MIC at 50 uM after 12 to 24 hrs (reference value: 0.5 microg/ml); format: functional; settings: time hrs 12-24
# Bacillus subtilis [14] = test: Potentiation of vancomycin-induced antibacterial activity against Bacillus subtilis assessed as fold reduction in vancomycin MIC at 50 uM after 12 to 24 hrs relative to vancomycin MIC alone; format: functional; settings: time hrs 12-24
# Staphylococcus aureus [15] = test: Antibacterial activity against Staphylococcus aureus; format: functional, organism-based
# Escherichia coli [16] = test: Potentiation of penicillin G-induced antibacterial activity against Escherichia coli assessed as penicillin G MIC at 50 uM after 12 to 24 hrs (reference value: 64 microg/ml); format: functional; settings: time hrs 12-24
# Escherichia coli [17] = test: Antibacterial activity against Escherichia coli; format: functional, organism-based
# Staphylococcus aureus [18] = test: Potentiation of amoxicillin-induced antibacterial activity against Staphylococcus aureus assessed as amoxicillin MIC at 50 uM after 12 to 24 hrs (reference value: 128 microg/ml); format: functional; settings: time hrs 12-24
# Pseudomonas aeruginosa [19] = test: Potentiation of vancomycin-induced antibacterial activity against Pseudomonas aeruginosa assessed as vancomycin MIC at 50 uM after 12 to 24 hrs (reference value: 1 microg/ml); format: functional; settings: time hrs 12-24
# Bacillus subtilis [20] = test: Potentiation of penicillin G-induced antibacterial activity against Bacillus subtilis assessed as penicillin G MIC at 50 uM after 12 to 24 hrs (reference value: 64 microg/ml); format: functional; settings: time hrs 12-24
# Escherichia coli [21] = test: Potentiation of erythromycin-induced antibacterial activity against Escherichia coli assessed as fold reduction in erythromycin MIC at 50 uM after 12 to 24 hrs relative to erythromycin MIC alone; format: functional; settings: time hrs 12-24
# Pseudomonas aeruginosa [22] = test: Antibiofilm activity against Pseudomonas aeruginosa by crystal violet staining based assay; format: functional, organism-based
# Escherichia coli [23] = test: Potentiation of penicillin G-induced antibacterial activity against Escherichia coli assessed as fold reduction in penicillin G MIC at 50 uM after 12 to 24 hrs relative to penicillin G MIC alone; format: functional; settings: time hrs 12-24
# Staphylococcus aureus [24] = test: Potentiation of penicillin G-induced antibacterial activity against Staphylococcus aureus assessed as fold reduction in penicillin G MIC at 50 uM after 12 to 24 hrs relative to penicillin G MIC alone; format: functional; settings: time hrs 12-24
# Escherichia coli [25] = test: Potentiation of amoxicillin-induced antibacterial activity against Escherichia coli assessed as fold reduction in amoxicillin MIC at 50 uM after 12 to 24 hrs relative to amoxicillin MIC alone; format: functional; settings: time hrs 12-24
# Staphylococcus aureus [26] = test: Potentiation of erythromycin-induced antibacterial activity against Staphylococcus aureus assessed as fold reduction in erythromycin MIC at 50 uM after 12 to 24 hrs relative to erythromycin MIC alone; format: functional; settings: time hrs 12-24
# Staphylococcus aureus [27] = test: Potentiation of erythromycin-induced antibacterial activity against Staphylococcus aureus assessed as erythromycin MIC at 50 uM after 12 to 24 hrs (reference value: 0.5 microg/ml); format: functional; settings: time hrs 12-24
# Bacillus subtilis [28] = test: Potentiation of erythromycin-induced antibacterial activity against Bacillus subtilis assessed as erythromycin MIC at 50 uM after 12 to 24 hrs (reference value: 0.5 microg/ml); format: functional; settings: time hrs 12-24
# Staphylococcus aureus [29] = test: Potentiation of penicillin G-induced antibacterial activity against Staphylococcus aureus assessed as penicillin G MIC at 50 uM after 12 to 24 hrs (reference value: […] microg/ml); format: functional; settings: time hrs 12-24
# Pseudomonas aeruginosa [30] = test: Potentiation of vancomycin-induced antibacterial activity against Pseudomonas aeruginosa assessed as fold reduction in vancomycin MIC at 50 uM after 12 to 24 hrs relative to vancomycin MIC alone; format: functional; settings: time hrs 12-24
# Pseudomonas aeruginosa [31] = test: Potentiation of penicillin G-induced antibacterial activity against Pseudomonas aeruginosa assessed as penicillin G MIC at 50 uM after 12 to 24 hrs (Rvb > 128 microg/ml); format: functional; settings: time hrs 12-24
# Escherichia coli [32] = test: Potentiation of amoxicillin-induced antibacterial activity against Escherichia coli assessed as amoxicillin MIC at 50 uM after 12 to 24 hrs (reference value: 4 microg/ml); format: functional; settings: time hrs 12-24
# Bacillus subtilis [33] = test: Potentiation of amoxicillin-induced antibacterial activity against Bacillus subtilis assessed as amoxicillin MIC at 50 uM after 12 to 24 hrs (reference value: 64 microg/ml); format: functional; settings: time hrs 12-24
# Pseudomonas aeruginosa [34] = test: Potentiation of erythromycin-induced antibacterial activity against Pseudomonas aeruginosa assessed as erythromycin MIC at 50 uM after 12 to 24 hrs (reference value: 0.5 microg/ml); format: functional; settings: time hrs 12-24
# Bacillus subtilis [35] = test: Antibacterial activity against Bacillus subtilis; format: functional, organism-based
# Escherichia coli [36] = test: Potentiation of erythromycin-induced antibacterial activity against Escherichia coli assessed as erythromycin MIC at 50 uM after 12 to 24 hrs (reference value: 1 microg/ml); format: functional; settings: time hrs 12-24
# Bacillus subtilis [37] = test: Potentiation of erythromycin-induced antibacterial activity against Bacillus subtilis assessed as fold reduction in erythromycin MIC at 50 uM after 12 to 24 hrs relative to erythromycin MIC alone; format: functional; settings: time hrs 12-24
# Bacillus subtilis [38] = test: Potentiation of vancomycin-induced antibacterial activity against Bacillus subtilis assessed as vancomycin MIC at 50 uM after 12 to 24 hrs (reference value: 64 microg/ml); format: functional; settings: time hrs 12-24
# Pseudomonas aeruginosa [39] = test: Antibacterial activity against Pseudomonas aeruginosa GKCW120 harboring P6 deletion mutant assessed as growth inhibition incubated for 24 hrs by micro dilution assay; format: functional
# Pseudomonas aeruginosa [40] = test: Antibacterial activity against Pseudomonas aeruginosa PAO1 assessed as growth inhibition by micro dilution assay; format: functional
# Pseudomonas aeruginosa [41] = test: Antibacterial activity against Pseudomonas aeruginosa GKCW120 harboring P6 deletion mutant assessed as growth inhibition incubated for 8 hrs by micro dilution assay; format: functional
compound,measurement,setting,value
CCC(=O)c1c(O)cc(CC)oc1=O,MIC,Escherichia coli [1],64 µg/mL
same,Ratio,Pseudomonas aeruginosa [2],1
same,Ratio,Escherichia coli [3],1
same,MIC,Pseudomonas aeruginosa [4],2 µg/mL
same,Activity,Pseudomonas aeruginosa [5],inactive
same,Ratio,Bacillus subtilis [6],1
same,Ratio,Staphylococcus aureus [7],1
same,Ratio,Bacillus subtilis [8],1
same,Ratio,Staphylococcus aureus [9],1
same,IC50,Pseudomonas aeruginosa [10],> 1000 µg/mL
same,MIC,Pseudomonas aeruginosa [10],> 5 mM
same,Ratio,Pseudomonas aeruginosa [11],1
same,Ratio,Pseudomonas aeruginosa [12],>256
same,MIC,Staphylococcus aureus [13],0.5 µg/mL
same,Ratio,Bacillus subtilis [14],1
same,IC50,Staphylococcus aureus [15],> 100 µg/mL
same,MIC,Staphylococcus aureus [15],> 500 µM
same,MIC,Escherichia coli [16],64 µg/mL
same,IC50,Escherichia coli [17],> 100 µg/mL
same,MIC,Escherichia coli [17],> 500 µM
same,MIC,Staphylococcus aureus [18],128 µg/mL
same,MIC,Pseudomonas aeruginosa [19],1 µg/mL
same,MIC,Bacillus subtilis [20],64 µg/mL
same,Ratio,Escherichia coli [21],1
same,Activity,Pseudomonas aeruginosa [22],inactive
same,Ratio,Escherichia coli [23],1
same,Ratio,Staphylococcus aureus [24],1
same,Ratio,Escherichia coli [25],1
same,Ratio,Staphylococcus aureus [26],1
same,MIC,Staphylococcus aureus [27],0.5 µg/mL
same,MIC,Bacillus subtilis [28],0.5 µg/mL
same,MIC,Staphylococcus aureus [29],64 µg/mL
same,Ratio,Pseudomonas aeruginosa [30],1
same,MIC,Pseudomonas aeruginosa [31],0.5 µg/mL
same,MIC,Escherichia coli [32],4 µg/mL
same,MIC,Bacillus subtilis [33],64 µg/mL
same,MIC,Pseudomonas aeruginosa [34],0.5 µg/mL
same,IC50,Bacillus subtilis [35],> 100 µg/mL
same,MIC,Bacillus subtilis [35],> 500 µM
same,MIC,Escherichia coli [36],1 µg/mL
same,Ratio,Bacillus subtilis [37],1
same,MIC,Bacillus subtilis [38],64 µg/mL
CC1(C)S[C@@H]2[C@H](NC(=O)Cc3ccccc3)C(=O)N2[C@H]1C(=O)O [PENICILLIN G],MIC,Pseudomonas aeruginosa [39],> 128 µg/mL
same,MIC,Pseudomonas aeruginosa [40],> 128 µg/mL
same,MIC,Pseudomonas aeruginosa [41],0.5 µg/mL
CCCc1c(O)cc(CC)oc1=O,MIC,Escherichia coli [1],64 µg/mL
same,Ratio,Pseudomonas aeruginosa [2],1
same,Ratio,Escherichia coli [3],1
same,MIC,Pseudomonas aeruginosa [4],2 µg/mL
same,Activity,Pseudomonas aeruginosa [5],inactive
same,Ratio,Bacillus subtilis [6],1
same,Ratio,Staphylococcus aureus [7],1
same,Ratio,Bacillus subtilis [8],1
same,Ratio,Staphylococcus aureus [9],1
same,IC50,Pseudomonas aeruginosa [10],> 1000 µg/mL
same,MIC,Pseudomonas aeruginosa [10],> 5 mM
same,Ratio,Pseudomonas aeruginosa [11],1
same,Ratio,Pseudomonas aeruginosa [12],>1
same,MIC,Staphylococcus aureus [13],0.5 µg/mL
same,Ratio,Bacillus subtilis [14],1
same,IC50,Staphylococcus aureus [15],> 100 µg/mL
same,MIC,Staphylococcus aureus [15],> 500 µM
same,MIC,Escherichia coli [16],64 µg/mL
same,IC50,Escherichia coli [17],> 100 µg/mL
same,MIC,Escherichia coli [17],> 500 µM
same,MIC,Staphylococcus aureus [18],128 µg/mL
same,MIC,Pseudomonas aeruginosa [19],1 µg/mL
same,MIC,Bacillus subtilis [20],64 µg/mL
same,Ratio,Escherichia coli [21],1
same,Activity,Pseudomonas aeruginosa [22],inactive
same,Ratio,Escherichia coli [23],1
same,Ratio,Staphylococcus aureus [24],1
same,Ratio,Escherichia coli [25],1
same,Ratio,Staphylococcus aureus [26],1
same,MIC,Staphylococcus aureus [27],0.5 µg/mL
same,MIC,Bacillus subtilis [28],0.5 µg/mL
same,MIC,Staphylococcus aureus [29],64 µg/mL
same,Ratio,Pseudomonas aeruginosa [30],1
same,MIC,Pseudomonas aeruginosa [31],128 µg/mL
same,MIC,Escherichia coli [32],4 µg/mL
same,MIC,Bacillus subtilis [33],64 µg/mL
same,MIC,Pseudomonas aeruginosa [34],0.5 µg/mL
same,IC50,Bacillus subtilis [35],> 100 µg/mL
same,MIC,Bacillus subtilis [35],> 500 µM
same,MIC,Escherichia coli [36],1 µg/mL
same,Ratio,Bacillus subtilis [37],1
same,MIC,Bacillus subtilis [38],64 µg/mL
